From patent US20250025550A1, “ADJUVANT COMPOUNDS AND FORMULATIONS” (ADJUVANCE TECHNOLOGIES, INC., priority 2021, published 2025)
“And” between values parts separate entries of the source, which are not always exact repeats. Identical values can stand only once.

Experiments:
[1] = Solubility in water at physiological pH; format: physicochemical; settings: free acid form
[2] = pH of TQL-1055 HP-β-CD solutions (Example 1); format: physicochemical
Method: (§1) Two solutions were prepared: (1) 15% w/v HP-β-CD in 1 ml of PBS, add TQL-1055 (crushed) to achieve 1 mg/ml; and (2) 20% w/v HP-β-CD in 1 ml of PBS; add TQL-1055 (crushed) to achieve 1 mg/ml. Both solutions were solubilized using heat and sonication for one hour at 60° C.

[3] = Stability of TQL-1055 in HP-β-CD solution: HPLC; format: physicochemical; design: unit not given here; settings: 1 mg/ml TQL-1055, 20% w/v HP-β-CD in PBS
Method: (§2) Solutions containing 20% w/v HP-β-CD and 1 mg/ml dissolved TQL-1055 were prepared according to the following procedure: (1) crush TQL-1055 and sonicate in PBS; (2) add HP-β-CD solution to create a final concentration of 1 mg/ml TQL-1055, 20% HP-β-CD in PBS buffer (3) sonicate for ˜30-60 minutes at 60C (4) obtain a clear solution having 1 mg/ml TQL-1055; 20% w/v HP-R-CD. Control samples containing 20% HP-β-CD were prepared. Optical density and pH were measured at t=1 day, 1 week, 1 month, and 2 months. HPLC was conducted at t=1 day, 1 week, 1 month, and 2 months.

CD-i mice = settings: mouse, in vivo
[4] = Optical density (clarity) of TQL-1055 in HP-β-CD solution; format: physicochemical; settings: for Dissolution of TQL-1055: heat and sonication one hour at 60° C.
Method: as §1
Optical density shown below. Clarity is defined against background solvent optical density ([…]):
Three solutions were prepared: (1) 15% w/v HP-β-CD in 1 ml of PBS, add TQL-1055 (crushed) to achieve 2 mg/ml; (2) 20% w/v HP-β-CD in 1 ml of PBS; add TQL-1055 (crushed) to achieve 2 mg/ml; and (3) 25% w/v HP-β-CD in 1 ml of PBS; add TQL-1055 (crushed) to achieve 2 mg/ml. Solutions were solubilized using heat and sonication for one hour at 60° C. […]

[5] = Stability of TQL-1055 in HP-β-CD solution: clarity (optical density); format: physicochemical; settings: 1 mg/ml TQL-1055, 20% w/v HP-β-CD in PBS
Method: as §2

[6] = Stability of TQL-1055 in HP-β-CD solution: pH; format: physicochemical; settings: 1 mg/ml TQL-1055, 20% w/v HP-β-CD in PBS
Method: as §2

[7] = 1 mg/ml TQL-1055 in 15% w/v HP-β-CD in PBS, 48 hours (stored at 5° C.)
[8] = 1 mg/ml TQL-1055 in 15% w/v HP-β-CD in PBS, 48 hours (stored at RT)
[9] = 1 mg/ml TQL-1055 in 20% w/v HP-β-CD in PBS, 48 hours (stored at 5° C.)
[10] = 1 mg/ml TQL-1055 in 20% w/v HP-β-CD in PBS, 48 hours (stored at RT)
[11] = 2 mg/ml in 15% w/v HP-β-CD in PBS (solution 1)

Compound: CC1O[C@@H](OC2C(O)[C@@H](NC(=O)CCCCCCCCCCC(=O)O)C(CO)O[C@H]2OC(=O)[C@]23CCC(C)(C)CC2C2=CCC4C5(C)CC[C@H](O)C(C)(C=O)C5CCC4(C)C2(C)CC3O)C(O)C(O)[C@H]1O[C@@H]1OC[C@@H](O)C(O)C1O (stereo partly shown) [TQL-1055]
- solubility in water [1]: poor solubility in water at physiological pH
- pH [2, 7]: (pH = 7.26)
- pH [2, 8]: (pH = 7.28)
- pH [2, 9]: (pH = 7.28)
- pH [2, 10]: (pH = 7.21)
- HPLC ([3]; 5 C., 1 month): 106.1 and 107.9
- HPLC ([3]; 5 C., 1 week): 104.4 and 108.9
- HPLC ([3]; 5 C., 2 months): 109 and 105
- HPLC ([3]; 5 C., Day 1): 105.4 and 109.4
- HPLC ([3]; 25 C., 1 month): 108.7 and 107.5
- HPLC ([3]; 25 C., 1 week): 109.2 and 106.9
- HPLC ([3]; 25 C., 2 months): 105
- HPLC ([3]; 25 C., Day 1): 106.1 and 109.4
- HPLC ([3]; −20 C., 1 month): 109.6
- HPLC ([3]; −20 C., 2 months): 105.3 and 102
- HPLC ([3]; −20 C., Day 1): 100 and 105.3
- Mortality (follow-on studies, text) (CD-i mice): did not result in mortality
- Optical density ([4]; 1 mg/ml TQL-1055 in 15% w/v HP-β-CD in PBS, 0 hour (after sonication)): 0.055
- Optical density ([4]; 1 mg/ml TQL-1055 in 15% w/v HP-β-CD in PBS, 24 hours (stored at 5° C.)): 0.051
- Optical density ([4]; 1 mg/ml TQL-1055 in 15% w/v HP-β-CD in PBS, 24 hours (stored at RT)): 0.051
- Optical density [4, 7]: 0.052
- Optical density [4, 8]: 0.051
- Optical density ([4]; 1 mg/ml TQL-1055 in 20% w/v HP-β-CD in PBS, 0 hour (after sonication)): 0.058
- Optical density ([4]; 1 mg/ml TQL-1055 in 20% w/v HP-β-CD in PBS, 24 hours (stored at 5° C.)): 0.050
- Optical density ([4]; 1 mg/ml TQL-1055 in 20% w/v HP-β-CD in PBS, 24 hours (stored at RT)): 0.050
- Optical density [4, 9]: 0.056
- Optical density [4, 10]: 0.051
- Dissolution of TQL-1055 ([4]; 1 mg/ml in 15% and in 20% w/v HP-β-CD in PBS): dissolved completely
- Optical density ([4]; 2 mg/ml TQL-1055 in 15% w/v HP-β-CD in PBS, 0 hour (after sonication), replicates): 0.083, 0.083, (2×) and 0.083 (n = 3)
- Optical density ([4]; 2 mg/ml TQL-1055 in 15% w/v HP-β-CD in PBS, 24 hours (stored at RT), replicates): 0.081, 0.081
- Optical density ([4]; 2 mg/ml TQL-1055 in 15% w/v HP-β-CD in PBS, 48 hours (stored at RT), replicates): 0.067 and 0.068
- Optical density ([4]; 2 mg/ml TQL-1055 in 20% w/v HP-β-CD in PBS, 0 hour (after sonication), replicates): 0.061 and 0.066 and 0.068 (n = 3)
- Optical density ([4]; 2 mg/ml TQL-1055 in 20% w/v HP-β-CD in PBS, 24 hours (stored at RT), replicates): 0.054, 0.054
- Optical density ([4]; 2 mg/ml TQL-1055 in 20% w/v HP-β-CD in PBS, 48 hours (stored at RT), replicates): 0.049 and 0.053
- Optical density ([4]; 2 mg/ml TQL-1055 in 25% w/v HP-β-CD in PBS, 0 hour (after sonication), replicates): 0.052 (n = 3) and 0.049 and 0.051
- Optical density ([4]; 2 mg/ml TQL-1055 in 25% w/v HP-β-CD in PBS, 24 hours (stored at RT), replicates): 0.053 and 0.054
- Optical density ([4]; 2 mg/ml TQL-1055 in 25% w/v HP-β-CD in PBS, 48 hours (stored at RT), replicates): 0.057 and 0.055
- Clarity of solution [4, 11]: not completely clear
- Optical density (OD) [4, 11]: > 0.060
- Dissolution of TQL-1055 ([4]; 2 mg/ml in 20% (solution 2) and 25% (solution 3) w/v HP-β-CD in PBS): dissolved completely
- Clarity (OD) ([5]; 5 C., 1 month): 0.0485 and 0.051
- Clarity (OD) ([5]; 5 C., 1 week): 0.051 and 0.053
- Clarity (OD) ([5]; 5 C., 2 month): 0.058 and 0.050
- Clarity (OD) ([5]; 5 C., Day 1): 0.054 and 0.053
- Clarity (OD) ([5]; 25 C., 1 month): 0.053 and 0.0455
- Clarity (OD) ([5]; 25 C., 1 week): 0.049 and 0.052
- Clarity (OD) ([5]; 25 C., 2 month): 0.051 and 0.05
- Clarity (OD) ([5]; 25 C., Day 1): 0.052 and 0.050
- Clarity (OD) ([5]; −20 C., 1 month): 0.049 and 0.0475
- Clarity (OD) ([5]; −20 C., 1 week): 0.05 and 0.051
- Clarity (OD) ([5]; −20 C., 2 month): 0.054
- Clarity (OD) ([5]; −20 C., Day 1): 0.056 and 0.052
- pH ([6]; 5 C., 1 month): 7.81 and 7.32
- pH ([6]; 5 C., 1 week): 7.32 and 7.25
- pH ([6]; 5 C., 2 month): 7.35 and 7.48
- pH ([6]; 5 C., Day 1): 7.47 and 7.43
- pH ([6]; 25 C., 1 month): 7.82 and 7.50
- pH ([6]; 25 C., 1 week): 7.35 and 7.00
- pH ([6]; 25 C., 2 month): 7.51 and 7.44
- pH ([6]; 25 C., Day 1): 7.45 and 7.47
- pH ([6]; −20 C., 1 month): 7.24 and 7.53
- pH ([6]; −20 C., 1 week): 7.19 and 7.26
- pH ([6]; −20 C., 2 month): 7.41 and 7.46
- pH ([6]; −20 C., Day 1): 7.35 and 7.41
